Reference: ChEMBL document CHEMBL1201862, “PubChem BioAssay data set” (2004)
Active and inactive are the calls of the source. No stated cut-off is given here; in the data, actives have a measured IC50 and inactives only a lower limit.

Target: Envelope glycoprotein gp160 (Human immunodeficiency virus 1, UniProt Q6QLK5)
Assay: inhibitors of HIV fusion peptide binding, primary screen, biochemical, uHTS, fluorescence dequenching (AID 1986)

Envelope glycoprotein gp160, sequence (Q6QLK5 whole entry, the tested form may be a part): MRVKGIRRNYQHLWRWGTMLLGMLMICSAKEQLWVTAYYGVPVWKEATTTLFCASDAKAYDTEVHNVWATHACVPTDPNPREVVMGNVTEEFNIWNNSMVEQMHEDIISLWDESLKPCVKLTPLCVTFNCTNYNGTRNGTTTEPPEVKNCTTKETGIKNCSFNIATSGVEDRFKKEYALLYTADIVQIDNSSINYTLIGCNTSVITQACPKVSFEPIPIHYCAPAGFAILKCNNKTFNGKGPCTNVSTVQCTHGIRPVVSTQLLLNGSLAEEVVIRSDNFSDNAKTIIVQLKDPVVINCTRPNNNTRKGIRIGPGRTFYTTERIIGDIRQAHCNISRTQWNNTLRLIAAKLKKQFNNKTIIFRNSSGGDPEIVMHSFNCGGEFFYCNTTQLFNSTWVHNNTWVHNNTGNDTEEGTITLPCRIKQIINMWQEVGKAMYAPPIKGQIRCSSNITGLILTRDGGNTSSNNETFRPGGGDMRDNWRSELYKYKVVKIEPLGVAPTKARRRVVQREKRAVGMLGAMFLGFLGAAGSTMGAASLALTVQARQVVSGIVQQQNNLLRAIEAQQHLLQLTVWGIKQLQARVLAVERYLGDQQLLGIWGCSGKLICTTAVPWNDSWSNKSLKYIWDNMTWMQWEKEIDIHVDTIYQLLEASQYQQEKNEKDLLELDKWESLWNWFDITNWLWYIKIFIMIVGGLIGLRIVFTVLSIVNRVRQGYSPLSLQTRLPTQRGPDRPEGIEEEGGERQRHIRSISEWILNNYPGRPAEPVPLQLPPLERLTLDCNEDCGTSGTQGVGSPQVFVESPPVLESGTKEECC

**Q.** CC(C)NC(=O)c1sc(=S)n2c1[nH]c(=O)c1ccc(C(=O)NCCc3ccc(Cl)cc3)cc12 was tested. Which IC50 did it give?
**A.** 95.7 µM (active)

**Q.** For O=C(O)COc1ccc(Br)cc1C(c1c(C(=O)O)[nH]c2ccccc12)c1c(C(=O)O)[nH]c2ccccc12, which IC50 is on record?
**A.** 5.76 µM (active)

**Q.** For CC1=NN(c2ccc(C(=O)O)cc2)C(=O)/C1=C\c1ccc(OC(=O)c2cccs2)cc1, which IC50 is on record?
**A.** 12.6 µM (active)

**Q.** For COc1ccc(/N=C2\S/C(=C\c3ccc(OCC(=O)O)cc3)C(=O)N2CCc2c[nH]c3ccccc23)cc1, which IC50 is on record?
**A.** 12.6 µM (active)
